Test results published in patent US6410515B1, “Peptide, a method for its preparation and a pharmaceutical composition containing the peptide” (Immunotech Developments Inc., priority 1995, dated 2002).

Tests used:
[1] = tested on: hemopoietic progenitor cells (CFU-S); assay: CFU-S content in bone marrow of mice irradiated with 4 Gy; assay type: in vivo; details: day 8, control 401 ± 48
Protocol: The effect of H-A-D-Trp-Y, where A is D-Glu or D-iGlu and Y is OH or a substituted amide, on protection and reconstitution of the population of hemopoietic progenitor cells in cytopenias of different origin was studied.
Ionising radiation was used to deplete bone marrow. Donor mice were irradiated at a dose of 4 Gy. For each of the two peptides, 10 μg/kg was injected intraperitoneally 1 hour, 1 day or 2 days before the irradiation (groups of 12 mice each). Bone marrow was taken from femoral bones 8 days after the irradiation. Eight days generally marks the beginning of an exponential reconstitution of both the total number of cells and the population of hemopoietic progenitors in the bone marrow, which were depleted as a result of irradiation.
On the 8th day a sharp statistically significant increase was recorded in the hemopoietic progenitor cells count in the bone marrow of the mice irradiated in the dose of 4 Gy who had received the peptide 2 days before the irradiation.

[2] = tested on: (CBA×C57 B1) F1 mice; assay: Chronic lymphocyte-induced GVHR in irradiated (6 Gy) mice; assay type: in vivo; details: for Survival (%) / Survival (mice): after 60 days; for Survival (%): control 60; for Survival (mice): of 10 mice, control 6
Protocol: Recipient (CBA×C57 B1) F1 mice were irradiated with the dose of 6 Gy. Two hours after irradiation they were intravenously injected with 6 mln lymphocytes from mesenteric lymph nodes of C57B1 donor mice. […] The peptide was injected intraperitoneally once daily, 5 days a week, until day 21, for a total of 14 injections.
Indicators of the degree of GVHR development were animal weight and lymphocyte and leukocyte count. The animals were weighed every 3 days. On day 14 and day 28 lymphocyte and leukocyte count were determined using peripheral blood.

## H-D-iGlu-D-Trp-OH [iDD]
[1]; 10 μg/kg IP 1 hour before 4 Gy
  CFU-S count per femur: 394 ± 57
[1]; 10 μg/kg IP 1 day before 4 Gy
  CFU-S count per femur: 324 ± 63
[1]; 10 μg/kg IP 2 days before 4 Gy
  CFU-S count per femur: 677 ± 49
[2]; Dose 10 μ/kg, Day 5, initial average 18.3 g
  Animal Weight: 18.0 grams
[2]; Dose 10 μ/kg, Day 8
  Animal Weight: 18.3 grams
[2]; Dose 10 μ/kg, Day 12
  Animal Weight: 18.3 grams
[2]; Dose 10 μ/kg, Day 14
  Animal Weight: 17.8 grams
[2]; Dose 10 μ/kg, Day 19
  Animal Weight: 17.6 grams
[2]; Dose 10 μ/kg, Day 21
  Animal Weight: 17.8 grams
[2]; Dose 10 μ/kg, Day 23
  Animal Weight: 18.6 grams
[2]; Dose 10 μ/kg, Day 26
  Animal Weight: 18.9 grams
[2]; Dose 10 μ/kg, Day 30
  Animal Weight: 18.9 grams
[2]; Dose 10 μ/kg, Day 33
  Animal Weight: 18.9 grams
[2]; Dose 10 μ/kg, Day 40
  Animal Weight: 19.2 grams
[2]; Dose 10 μ/kg, Day 47
  Animal Weight: 19.9 grams
[2]; Dose 10 μ/kg, Day 54
  Animal Weight: 20.0 grams
[2]; Dose 10 μ/kg, Day 60
  Animal Weight: 20.0 grams
[2]; Dose 100 μ/kg, Day 5, initial average 18.3 g
  Animal Weight: 18.6 grams
[2]; Dose 100 μ/kg, Day 8
  Animal Weight: 18.5 grams
[2]; Dose 100 μ/kg, Day 12
  Animal Weight: 18.6 grams
[2]; Dose 100 μ/kg, Day 14
  Animal Weight: 19.0 grams
[2]; Dose 100 μ/kg, Day 19
  Animal Weight: 19.0 grams
[2]; Dose 100 μ/kg, Day 21
  Animal Weight: 19.3 grams
[2]; Dose 100 μ/kg, Day 23
  Animal Weight: 19.6 grams
[2]; Dose 100 μ/kg, Day 26
  Animal Weight: 19.6 grams
[2]; Dose 100 μ/kg, Day 30
  Animal Weight: 19.7 grams
[2]; Dose 100 μ/kg, Day 33
  Animal Weight: 19.7 grams
[2]; Dose 100 μ/kg, Day 40
  Animal Weight: 20.0 grams
[2]; Dose 100 μ/kg, Day 47
  Animal Weight: 20.3 grams
[2]; Dose 100 μ/kg, Day 54
  Animal Weight: 20.4 grams
[2]; Dose 100 μ/kg, Day 60
  Animal Weight: 20.4 grams
[2]; Dose 1000 μ/kg, Day 5, initial average 18.3 g
  Animal Weight: 19.1 grams
[2]; Dose 1000 μ/kg, Day 8
  Animal Weight: 19.1 grams
[2]; Dose 1000 μ/kg, Day 12
  Animal Weight: 18.9 grams
[2]; Dose 1000 μ/kg, Day 14
  Animal Weight: 18.9 grams
[2]; Dose 1000 μ/kg, Day 19
  Animal Weight: 19.4 grams
[2]; Dose 1000 μ/kg, Day 21
  Animal Weight: 19.6 grams
[2]; Dose 1000 μ/kg, Day 23
  Animal Weight: 19.8 grams
[2]; Dose 1000 μ/kg, Day 26
  Animal Weight: 19.8 grams
[2]; Dose 1000 μ/kg, Day 30
  Animal Weight: 20.0 grams
[2]; Dose 1000 μ/kg, Day 33
  Animal Weight: 20.0 grams
[2]; Dose 1000 μ/kg, Day 40
  Animal Weight: 20.2 grams
[2]; Dose 1000 μ/kg, Day 47
  Animal Weight: 20.5 grams
[2]; Dose 1000 μ/kg, Day 54
  Animal Weight: 20.1 grams
[2]; Dose 1000 μ/kg, Day 60
  Animal Weight: 20.4 grams
[2]; Dose 10 μ/kg
  Survival (%): 90%
  Survival (mice): 9
[2]; Dose 100 μ/kg
  Survival (%): 90%
  Survival (mice): 9
[2]; Dose 1000 μ/kg
  Survival (%): 80%
  Survival (mice): 8
[2]; peripheral blood, day 14 and day 28, Table 20 not given
  Lymphocyte and leukocyte counts versus control mice: significantly higher
